Patent EP0443559A2, “HIV protease inhibiting agents” (BIO-MEGA/BOEHRINGER INGELHEIM RESEARCH INC., priority 1990, dated 1991)

Legend:
HIV protease = HIV protease (Human immunodeficiency virus type 1 group M subtype B, UniProt P04585); test: biochemical
Text: The procedure is based on the capacity of the test compound to inhibit enzymatic cleavage by HIV protease of a decapeptide (the substrate) having an amino acid sequence which includes a known HIV protease cleavage site of a HIV polyprotein; see H.G. Krausslich et al., Proc. Natl. Acad. Sci. USA, 86,807(1989).
Recombinant HIV Protease HPLC Assay: Enzyme: HIV protease was expressed in E. coli [construct pBRT1 prt⁺, see W.G. Farmerie et al., Science, 236, 305 (1987)], according to the following protocol: Unless stated otherwise, all solutions are aqueous solutions.
E. coli cells containing the pBRT1 prt⁺ plasmid were used to inoculate a seed culture media composed of Luria-Bertani Broth containing 100µg/mL of ampicillin. Flasks were incubated at 37° under agitation for 17 h. Production flasks containing sterile M9 broth, supplemented with 100µg/ml of ampicillin, were inoculated at a level of 1% (v/v) using the seed culture described above. Total volume in each production flask was 500 mL in a 2 L Erlenmeyer flask. Flasks were incubated at 37° under agitation until a cell concentration corresponding to an optical density (λ= 540 m) of 0.6 was reached (no dilution). This time span was routinely 3-4 h. Flasks were then supplemented with 5mM isopropylthiogalactoside (IPTG, Research Organics, Cleveland, Ohio, USA) and incubation was continued until the cell concentration reached an optical density of 0.2 at 16-fold dilution. Flasks were then supplemented with 1mM phenylmethylsulfonyl fluoride (PMSF) and rapidly chilled to 4°. The bacterial cells were recovered by centrifugation at 4°. The wet pellet was stored at -70°.
All steps below were performed at 4° unless otherwise indicated. Thawed cells were mixed with buffer A [50 mM […] HCl(Tris-HCl, pH 7.4); 0.6 mM ethylenediaminetetraacetic acid (EDTA); 0.375 M NaCl, 0.2% Nonidet P-40 ^R (BDH Chemicals Ltd., Poole, UK); 1mM PMSF], at a ratio of one part cells to nine parts buffer A. Diatomaceous earth (Celite 545 ^R , John Manville, Lompoc, CA, USA) was added at a ratio of two parts to one part of wet cell weight. The resulting slurry was homogenized at high speed (ca. 20,000 rpm) on a Waring ^R industrial blender for 8 x 15 sec. pulses. Cell debris/Celite ^R was collected by centrifugation and the resulting pellet was extracted with 4.5 parts of buffer A to one part wet solids using the homogenization procedure described above. Supernatants from both homogenization steps were combined and soluble protein was precipitated by the addition of solid (NH₄)₂SO₄ to yield a final concentration of 75% saturation. This mixture was agitated for 60 min and the precipitate was recovered by centrifugation. The resulting pellet was suspended in buffer B [50mM Tris-HCl, pH 8; 30 mM NaCl; 1 mM DL-dithio-threitol (DTT); 1 mM EDTA; 1 mM PMSF; 10% glycerol], and dialyzed for 18h against the same buffer.
An aliquot of the dialyzed extract containing 150 mg of the protein was loaded onto a Sephadex A25 ^R anion exchange column. (Pharmacia, Uppsala, Sweden) with bed dimensions of 70 cm length and 2.5 cm diameter. The sample was eluted isocratically with buffer B at a linear flow rate of 10 cm/h. Fractions containing HIV protease activity (see below for assay description) were combined, and soluble protein was precipitated by the addition of saturated aqueous (NH₄)₂SO₄ to yield a total (NH₄)₂SO₄ concentration of 85% saturation. Precipitated protein was removed by centrifugation and the resulting pellet was dissolved in buffer C [50 mM 2-(4-morpholino)ethanesulfonic acid (MES), pH 5.5; 150 mM NaCl; 1 mM DTT; 1 mM EDTA; 10% glycerol]. This preparation was dialyzed for 18h against buffer C, and then frozen at -70°. All crude extracts were purified by chromatography in aliquots containing 150 mg of protein in the same manner as described above. The final preparations from each batch were pooled, divided into 34µL aliquots and stored at -70°.

HIV = details: at 20µg/mL; C8166 cells, H9/HTLV-IIIB, 72 h
Experimental: The following protocol, used for screening antiviral effects of the compounds of formula 1, is adapted from a plaque assay utilizing HTLV-I transformed cells which was developed by Harada et al., supra. HTLV-I transformed cells are used in these assays because of the rapidity with which HIV will replicate in these cells. • 1. The test compound is dissolved in dimethylsulfoxide to a concentration of 5 mg/mL. The resultant solution can be stored at 4° until used. • 2. The resultant solution is diluted in RPMI 1640 (Gibco Laboratories, St. Lawrence, MA, USA) to four times (4x) the final concentration which is to be tested. Once diluted in RPMI 1640, the solution is used in the cell culture assay within 4 h. • 3. The 4x solution (50µL) is added to triplicate wells of a 96 well flat bottomed microtiter plate. RPMI 50µL also is added to control wells. • 4. C8166 cells (5 x 10⁻⁴) in 50 µL of HEPES-buffered RPMI 1640, 10% heat inactivated fetal calf serum (FCS), 12.5µL/ml gentamicin (complete media) are added to all wells. • 5. […] Infectious titer of virus stocks are as previously determined by end point dilution on C8166 cells. […] Plates are then removed and centers of syncytia are counted in each well by low power phase contrast light microscopy. […] Percent inhibition of syncytia formation is calculated by the formula: [formula]

`CC(C)C[C@H](NC(=O)C[C@H](O)[C@H](CC1CCCCC1)NC(=O)[C@@H](NC(=O)CCc1ccc(OCC(=O)OCc2ccccc2)cc1)C(C)C)C(=O)N[C@@H](Cc1ccccc1)C(N)=O` [Example 2, [4-(BzlOC(O)CH₂O)Ph]CH₂CH₂C(O)-Val-ACHPA-Leu-Phe-NH₂] was tested, and the IC50 (HIV protease) was 0.17 µM.

Work on `CC[C@H](C)[C@H](NC(=O)[C@H](CCC(N)=O)NC(=O)[C@H](CC(C)C)NC[C@H](Cc1ccccc1)NC(=O)[C@@H](NC(C)=O)[C@@H](C)CC)C(N)=O` [Example 16, Ac-Ile-Pheψ[CH₂NH]Leu-Gln-Ile-NH₂] yielded an IC50 (HIV protease) of 0.18 µM.

For `CC[C@H](C)[C@H](NC(=O)[C@H](CCC(N)=O)NC(=O)[C@H](CC(C)(C)C)NC[C@H](Cc1ccccc1)NC(=O)[C@@H](NC(C)=O)C(C)C)C(N)=O` [Example 21, Ac-Val-Pheψ[CH₂NH]Tba-Gln-Ile-NH₂], the IC50 (HIV protease) was 0.72 µM.

In the case of `CC(=O)N[C@H](C(=O)N[C@@H](CC1CCCCC1)[C@@H](O)CC(=O)N[C@@H](CC(C)C)C(=O)N[C@@H](Cc1ccccc1)C(N)=O)C(C)(C)C` [Example 11, Ac-Tbg-ACHPA-Leu-Phe-NH₂], the IC50 (HIV protease) is reported as 0.2 µM and the “inhibition of syncytia formation” value (HIV) is reported as 72%.

In the case of `CC(=O)N[C@H](C(=O)N[C@@H](CC1CCCCC1)[C@@H](O)CC(=O)N[C@@H](CC(C)C)C(=O)N[C@@H](Cc1ccccc1)C(N)=O)C(C)C` [Example 5, Ac-Val-ACHPA-Leu-Phe-NH₂], the IC50 (HIV protease) is reported as 0.28 µM and the “inhibition of syncytia formation” value (HIV) is reported as 97%.

With `CC(=O)N[C@H](C(=O)N[C@H](CN[C@@H](CC(C)C)C(=O)N[C@H](C(=O)N[C@@H](COCc1ccccc1)C(N)=O)C(C)C)Cc1ccccc1)C(C)C` [Example 22, Ac-Val-Pheψ[CH₂NH]Leu-Val-Ser(OBzl)-NH₂] the IC50 (HIV protease) was 0.029 µM.

`CC[C@H](C)[C@H](NC(=O)[C@H](CCC(=O)O)NC(=O)[C@H](CC(C)C)NC[C@H](Cc1ccccc1)NC(=O)[C@@H](NC(C)=O)C(C)C)C(N)=O` [Example 12, Ac-Val-Pheψ[CH₂NH]Leu-Glu-Ile-NH₂] gave an IC50 (HIV protease) of 0.0067 µM.

Molecule `CC[C@H](C)[C@H](NC(=O)[C@H](CCC(N)=O)NC(=O)[C@H](CC(C)C)NC[C@H](Cc1ccccc1)NC(=O)[C@@H](NC(=O)[C@H](C)O)C(C)C)C(N)=O` [Example 19, [(S)-CH₃CH(OH)C(O)]-Val-Pheψ[CH₂NH]Leu-Gln-Ile-NH₂] has an IC50 (HIV protease) of 0.66 µM.

`CC(C)C[C@H](NC(=O)C[C@H](O)[C@H](CC1CCCCC1)NC(=O)[C@@H](NC(=O)[C@@H](O)CO)C(C)C)C(=O)N[C@@H](Cc1ccccc1)C(N)=O` [Example 4, [(S)-HOCH₂CH(OH)C(O)]-Val-ACHPA-Leu-Phe-NH₂] was tested, and the IC50 (HIV protease) was 0.18 µM.
